Laboratory results from publication PMC6753678, “Fueling Open Innovation for Malaria Transmission-Blocking Drugs: Hundreds of Molecules Targeting Early Parasite Mosquito Stages” (Frontiers in Microbiology, 2019).

Tests used:
HepG2 cells = assay: HepG2 cytotoxicity assay; details: HepG2 cytotoxicity unified across screens; >25 set to 25.00
In short: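 Cells are plated at 2,500 per well on compound-treated plates in MEM containing 10% fetal bovine serum and 1% NEAA, then incubated 48 h at 37°C.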

[1] = system: P. falciparum late stage (stages IV-V) gametocytes; set-up: method as in Almela et al 2016; details: P. falciparum late stage gametocyte ATP assay, TCAMS screen; ref Almela et al 2016; read-out: Pf GCT ATP IC50; cited from earlier work
[2] = system: P. falciparum late stage (stages IV-V) gametocytes; assay: P. falciparum late stage gametocyte ATP depletion assay (Pf GC-ATP); details: 1: YES; 0: NO; >10-fold selectivity over cytotoxicity

Structure (SMILES)	Unified cytotox (HepG2 cells)	IC50 [1]	Is compound selective in assay? Pf GC-ATP active? [2]
CCOc1ccc2ccccc2c1CNCCCCCCNCc1c(OCC)ccc2ccccc12.CS(=O)(=O)O [TCMDC-137791]	1.75 µM	700 nM	0 (0: NO)
O=C(NCCCCN1CCC(c2c[nH]c3ccc(-c4ccccc4)cc23)CC1)c1ccc(-c2ccccc2)cc1.O=C(O)C(=O)O [TCMDC-139064]	9.40 µM	1830 nM	0 (0: NO)
Cc1nc(-c2cccc(Nc3ccnc4cc(-c5nccs5)ccc34)c2)no1.Cl [TCMDC-138334]	7.62 µM	300 nM	1 (1: YES)
CN(C)Cc1ccc(-c2cccc(Nc3nccc(NCC(O)c4ccccc4)n3)c2)cc1 (stereo not drawn) [TCMDC-136467]	5.87 µM	900 nM	0 (0: NO)
CC(C)CNCc1cccc(-c2cccc(CN(CCCN3CCN(C)CC3)C(=O)CCC3CCCC3)c2)c1.O=C(O)C(F)(F)F [TCMDC-140554]	4.55 µM	600 nM	0 (0: NO)
Cl.c1ccc(CN2CCN(CCCCNc3c4ccccc4nc4ccccc34)CC2)cc1 [TCMDC-138009]	9.92 µM	790 nM	1 (1: YES)
Cc1cc(NCCc2ccccc2)nc(NC(=N)Nc2ccccc2Cl)n1 [TCMDC-138370]	13.60 µM	4870 nM	0 (0: NO)
COc1cc(NCC(C)CNCc2cn(Cc3ccccc3)c3ccccc23)nc2ccccc12 (stereo not drawn) [TCMDC-140496]	5.00 µM	1710 nM	0 (0: NO)
Cc1ccc2nc(C)cc(N/N=C/c3ccc([N+](=O)[O-])cc3)c2c1 [TCMDC-142070]	0.19 µM	9410 nM	0 (0: NO)
COc1ccc2c(c1CNCCCCCCNCc1c(OC)ccc3c1CCCC3)CCCC2 [TCMDC-137817]	3.83 µM	420 nM	0 (0: NO)
COc1ccc(CNCc2ccc(F)cc2)cc1-c1ccc(OC)c(S(=O)(=O)NCCN2CCCC2)c1.O=C(O)C(F)(F)F [TCMDC-132295]	11.40 µM	720 nM	1 (1: YES)
CCN(CC)CCOc1ccc(C(O)(C#CC(O)(c2ccccc2)c2ccc(OCCN(CC)CC)cc2)c2ccccc2)cc1 (stereo not drawn) [TCMDC-137197]	3.67 µM	690 nM	0 (0: NO)
C=C(C)Cn1cc(C2CCN(CCN3CCC(CNC(=O)c4ccc(-c5ccc(C#N)cc5)cc4)CC3)CC2)c2ccccc21 [TCMDC-138854]	3.70 µM	2930 nM	0 (0: NO)
CC(C)CNCc1cccc(-c2cccc(CN(CCCN3CCN(C)CC3)C(=O)NC3CCCCC3)c2)c1.O=C(O)C(F)(F)F [TCMDC-140633]	16.75 µM	1780 nM	0 (0: NO)
Cc1cc(-c2cccc(CNC3CCCC3)c2)ccc1S(=O)(=O)NCCN1CCCC1.O=C(O)C(F)(F)F [TCMDC-132279]	7.50 µM	1240 nM	0 (0: NO)
CN(CCCNCc1cccc2ccccc12)CCCNCc1cccc2ccccc12.Cl [TCMDC-137905]	5.72 µM	230 nM	1 (1: YES)

Structure (SMILES)	Unified cytotox (HepG2 cells)	IC50 [1]	Is compound selective in assay? Pf GC-ATP active? [2]
CN1CCN(c2nsc3ccc(-c4ccc(NC(=O)Nc5cc(C(F)(F)F)ccc5F)cc4)cc23)CC1.O=C(O)C(F)(F)F [TCMDC-133435]	6.40 µM	7520 nM	0 (0: NO)
Br.CCCCC(NCC)c1ccc(OCCOc2ccc(C(CCCC)NCC)cc2)cc1 (stereo not drawn) [TCMDC-137612]	6.10 µM	420 nM	1 (1: YES)
CN1CCN(CCCN(Cc2ccc(-c3cccc(CNC4CCCC4)c3)cc2)C(=O)Nc2ccccc2)CC1.O=C(O)C(F)(F)F [TCMDC-140605]	14.26 µM	180 nM	1 (1: YES)
NC1CCN(Cc2ccc(-c3ccc(-c4nc5cc(F)ccc5[nH]4)cc3)cc2)C1.O=C(O)C(F)(F)F (stereo not drawn) [TCMDC-133872]	7.25 µM	830 nM	0 (0: NO)
CC(C)CNCc1ccc(-c2cccc(CN(C(=O)NC3CCCCC3)C3CCN(Cc4ccccc4)CC3)c2)cc1.O=C(O)C(F)(F)F [TCMDC-140628]	1.81 µM	1660 nM	0 (0: NO)
Cc1cccc2nc(-c3cccc(-c4cccc(CNCCN5CCNCC5)c4)c3)[nH]c12.O=C(O)C(F)(F)F [TCMDC-132873]	7.76 µM	500 nM	1 (1: YES)
CCCCCCCN1CC[C@@H](CCCc2ccnc3ccc(OCC4CCCNC4)cc23)[C@@H](CC)C1.Cl (stereo partly drawn) [TCMDC-139816]	4.18 µM	300 nM	1 (1: YES)
Nc1cc(C=Cc2ccc([N+](=O)[O-])o2)nc2ccccc12 [TCMDC-142295]	11.70 µM	200 nM	1 (1: YES)
Cc1cccc2nc(-c3ccc(-c4cccc(CNCCN5CCNCC5)c4)cc3)[nH]c12 [TCMDC-132867]	13.40 µM	840 nM	1 (1: YES)
O=C(COc1ccccc1)N(Cc1ccc(-c2ccc(CNC3Cc4ccccc4C3)cc2)cc1)C1CCNCC1.O=C(O)C(F)(F)F [TCMDC-141450]	7.80 µM	990 nM	0 (0: NO)
CCCCCCC(N)c1ccc(OCCCOc2ccc(C(N)CCCCCC)cc2)cc1.Cl (stereo not drawn) [TCMDC-137621]	1.90 µM	53.3 nM	1 (1: YES)
FC(F)c1nc2ccccc2n1-c1nc(N2CCOCC2)nc(N2CCOCC2)n1 [TCMDC-137004]	1.58 µM	5440 nM	0 (0: NO)
CC(C)(C)N1CCC(N(Cc2ccc(-c3ccc(C(F)(F)F)cc3)cc2)C(=O)Cn2c(CCc3cccc(F)c3F)cc(=O)c3cccnc32)CC1.O=C(O)C(O)C(O)C(=O)O [TCMDC-136011]	3.10 µM	2390 nM	0 (0: NO)
COCCCNC(=S)NN=C(C)c1ccccn1 [TCMDC-137907]	17.00 µM	160 nM	1 (1: YES)
Cl.NCCCOc1cnc(-c2ccccc2)c2nc(-c3nonc3N)n(CCc3ccccc3)c12 [TCMDC-136216]	5.61 µM	1400 nM	0 (0: NO)
CC(C)(C)OC(=O)NCc1ccc(Nc2nnc(-c3ccc(OCC(=O)NCc4ccc(C(C)(C)C)cc4)c([N+](=O)[O-])c3)o2)cc1 [TCMDC-134991]	3.15 µM	700 nM	0 (0: NO)
